Experimental data as given in PMC12702354, “Engineered an ultrasmall curcumin oral nanoformulation restores intestinal integrity and gut microbiota dysbiosis” (Materials Today Bio, 2025).

Tested on: faecal metabolites of gut bacteria
Test: Faecal metabolome analysis (GC-MS) in VAN-induced mice
Type: in vivo, C57BL/6 mice
Conditions: faeces, VAN vs treated group, n = 5
Procedure: The extract of faecal samples (40 mg/ml methanol) was prepared as described in the previous method. The obtained dry extract was derivatized with methoxyamine-HCl and BSTFA (Sigma-Aldrich, USA), followed by incubation for 1 h at 37 °C. Subsequently, the supernatant (10 μl) obtained after centrifugation at 10,000×g for 12 min was injected into an Agilent GC-MS. The injector, transfer line, and ion source were set at 280 °C, 150 °C and 230 °C, respectively. At the beginning, we set the oven temperature to 60 °C, and then increased at 60 °C/min for 2 min, followed by an increase at the rate of 10 °C/min until reaching 300 °C.

For `COc1cc(/C=C/C(=O)CC(=O)/C=C/c2ccc(O)c(OC)c2)ccc1O` [free-CUR, curcumin], which “Fold change, 2,4,5-Trihydroxypentanoic acid” value is on record?
Its value is 0.778.

And the “Fold change, 2-Hydroxyglutaric acid” value?
The value was 3.491.

And the “Fold change, 4-Aminobutyric acid” value?
The value was 0.998.

And the “Fold change, 4-Hydroxy-3-methoxybenzoic acid” value?
The value was 0.619.

What about the “Fold change, 4-Hydroxyproline” value of the same compound?
Its value is 0.924.

What about the “Fold change, 5-Aminovaleric acid” value of the same compound?
Its value is 1.101.

And the “Fold change, 9,12,15-Octadecatrienoic acid” value?
The value was 1.217.

What about the “Fold change, 9-(Z)-Hexadecenoic acid” value of the same compound?
Its value is 1.102.

What about the “Fold change, Acetate” value of the same compound?
The value was 0.733.

What about the “Fold change, Adenine” value of the same compound?
The value was 0.325.

What about the “Fold change, Alanine” value of the same compound?
The value was 0.743.

What about the “Fold change, Arabitol” value of the same compound?
Its value is 0.432.

And the “Fold change, Aspartic acid” value?
The value was 3.075.

And the “Fold change, Azelaic acid” value?
The value was 0.849.

And the “Fold change, Benzenepropanoic acid” value?
The value was 0.368.

What about the “Fold change, Butyrate” value of the same compound?
The value was 0.168.

And the “Fold change, Cholesta-8,24-dien-3-ol, 4-methyl-, (3β,4α)” value?
The value was 1.313.

What about the “Fold change, D-fructose” value of the same compound?
The value was 1.400.

And the “Fold change, D-glucose” value?
The value was 1.069.

And the “Fold change, Eicosanoic acid” value?
The value was 0.404.

And the “Fold change, Erythronic acid” value?
Its value is 1.754.

And the “Fold change, Ethanolamine” value?
Its value is 1.266.

And the “Fold change, Fucose” value?
The value was 0.580.

What about the “Fold change, Galacturonic acid” value of the same compound?
The value was 1.024.

What about the “Fold change, Gentiobiose” value of the same compound?
The value was 2.357.

And the “Fold change, Gluconic acid” value?
Its value is 1.119.

And the “Fold change, Glutaric acid” value?
The value was 0.708.

And the “Fold change, Glycerol” value?
The value was 0.926.

And the “Fold change, Glycerol-3-phosphate” value?
The value was 2.032.

What about the “Fold change, Glycolic acid” value of the same compound?
The value was 2.144.

What about the “Fold change, Hexadecanoic acid” value of the same compound?
Its value is 1.155.

And the “Fold change, Hexanoic acid” value?
Its value is 1.359.

And the “Fold change, Homoserine” value?
The value was 2.352.

What about the “Fold change, Hypoxanthine” value of the same compound?
Its value is 0.916.

And the “Fold change, Isoleucine” value?
The value was 1.058.

What about the “Fold change, L-rhamnose” value of the same compound?
The value was 0.191.

What about the “Fold change, Lactic acid” value of the same compound?
The value was 0.573.

And the “Fold change, Leucine” value?
The value was 0.704.

What about the “Fold change, Lysine” value of the same compound?
Its value is 0.526.

And the “Fold change, Methionine” value?
Its value is 1.121.

And the “Fold change, Nicotinic acid” value?
Its value is 0.616.

And the “Fold change, Octadecadienoic acid” value?
Its value is 1.285.

And the “Fold change, Ornithine” value?
The value was 0.453.

And the “Fold change, Orotic acid” value?
The value was 1.443.

And the “Fold change, Pantothenic acid” value?
The value was 0.519.

What about the “Fold change, Pentadecanoic acid” value of the same compound?
The value was 0.271.

What about the “Fold change, Phenylalanine” value of the same compound?
Its value is 0.989.

What about the “Fold change, Phosphoric acid” value of the same compound?
The value was 1.212.

And the “Fold change, Propionate” value?
The value was 1.530.

What about the “Fold change, Ribitol” value of the same compound?
Its value is 1.340.

What about the “Fold change, Serine” value of the same compound?
The value was 0.538.

And the “Fold change, Sorbitol” value?
The value was 1.816.

And the “Fold change, Tetradecanoic acid” value?
Its value is 0.349.

What about the “Fold change, Threitol” value of the same compound?
The value was 2.116.

And the “Fold change, Threonic acid” value?
Its value is 1.362.

And the “Fold change, Threonine” value?
The value was 1.275.

And the “Fold change, Thymine” value?
The value was 1.214.

And the “Fold change, Tricosadiynoic acid” value?
The value was 0.767.

And the “Fold change, Tryptophan” value?
Its value is 1.117.

What about the “Fold change, Uracil” value of the same compound?
Its value is 0.561.

And the “Fold change, Uric acid” value?
Its value is 0.772.

And the “Fold change, beta-Alanine” value?
Its value is 1.217.

What about the “Fold change, myo-Inositol” value of the same compound?
Its value is 2.179.

And the “Fold change, myo-Inositol-1-phosphate” value?
The value was 0.584.
